The source of these data is patent US8410117B2, “Imidazopyrimidine derivatives” (Hoffmann-La Roche Inc., priority 2010, dated 2013).

The structures appear in SMILES notation.

In this test the target is T1, human PDE10A (Homo sapiens, UniProt Q9Y233).
T1 construct: The human PDE10A full length assay; purchased Enzo Life Science, Lausen, Switzerland SE-534
T1 sequence (Q9Y233 1-779 isoform Q9Y233-1): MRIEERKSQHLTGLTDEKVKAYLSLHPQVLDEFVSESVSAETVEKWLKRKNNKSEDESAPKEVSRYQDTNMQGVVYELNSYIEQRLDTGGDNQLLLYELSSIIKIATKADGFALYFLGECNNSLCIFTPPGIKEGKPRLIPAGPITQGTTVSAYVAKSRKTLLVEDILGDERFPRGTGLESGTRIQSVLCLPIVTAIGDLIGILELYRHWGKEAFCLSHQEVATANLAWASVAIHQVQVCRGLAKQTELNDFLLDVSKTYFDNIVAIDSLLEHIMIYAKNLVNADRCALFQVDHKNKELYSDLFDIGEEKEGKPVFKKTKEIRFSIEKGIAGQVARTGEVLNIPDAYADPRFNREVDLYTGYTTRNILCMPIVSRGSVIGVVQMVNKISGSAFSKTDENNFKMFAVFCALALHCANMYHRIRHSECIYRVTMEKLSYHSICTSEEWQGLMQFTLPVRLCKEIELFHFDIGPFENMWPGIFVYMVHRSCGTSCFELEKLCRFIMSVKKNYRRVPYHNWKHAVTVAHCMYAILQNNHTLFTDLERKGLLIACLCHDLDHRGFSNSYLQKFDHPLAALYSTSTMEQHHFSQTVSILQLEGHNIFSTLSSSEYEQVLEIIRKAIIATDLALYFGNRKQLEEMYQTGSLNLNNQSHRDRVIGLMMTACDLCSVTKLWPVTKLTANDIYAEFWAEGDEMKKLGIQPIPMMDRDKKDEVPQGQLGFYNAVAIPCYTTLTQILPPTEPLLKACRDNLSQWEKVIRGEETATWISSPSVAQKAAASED
Kind of test: human PDE10A full length Scintillation Proximity Assay (SPA). The test is classed as biochemical. The conditions noted are these: 50 nM cGMP and 50 nM [3H]-cGMP, 20 minutes at room temperature; read-out: PDE10A inhibition IC50. How it is done:
The following test was carried out in order to determine the activity of the compounds of the present invention. PDE10 activity of the compounds of the present invention was determined using a Scintillation Proximity Assay (SPA)-based method similar to the one previously described (Fawcett, L. et al., Proc Natl Acad Sci USA (2000) 97(7):3702-3707).
The human PDE10A full length assay was performed in 96-well micro titer plates. The reaction mixture of 50 μl contained 20 mM HEPES pH=7.5/10 mM MgCl2/0.05 mg/ml BSA (Sigma cat. #A-7906), 50 nM cGMP (Sigma, cat. #G6129) and 50 nM [^3H]-cGMP (GE Healthcare, cat. #TRK392 S.A. 13.2 Ci/mmol), 3.75 ng/well PDE10A enzyme (Enzo Life Science, Lausen, Switzerland cat #SE-534) with or without a specific test compound. A range of concentrations of the potential inhibitor was used to generate data for calculating the concentration of inhibitor resulting in 50% of the effect (e.g. IC50, the concentration of the competitor inhibiting PDE10A activity by 50%). Non-specific activity was tested without the enzyme. The reaction was initiated by the addition of the substrate solution (cGMP and [^3H]-cGMP) and allowed to progress for 20 minutes at room temperature. The reaction was terminated by adding 25 μl of YSi-SPA scintillation beads (GE Healthcare, cat. #RPNQ0150) in 18 mM zinc sulphate solution (stop reagent). After 1 h under shaking, the plate was centrifuged one minute at 170 g to allow beads to settle. Afterwards, radioactive counts were measured on a Perkin Elmer TopCount Scintillation plate reader.
Regarding `Cn1ncc(C(=O)NCc2cocn2)c1C(=O)Nc1ccn2cc(-c3ccccc3)nc2n1` [Example 112, 1-methyl-N4-(oxazol-4-ylmethyl)-N5-(2-phenylimidazo[1,2-a]pyrimidin-7-yl)-1H-pyrazole-4,5-dicarboxamide], the IC50 came out at 1.3 nM.
Next, `Cn1cc(Cl)c(CNC(=O)c2cnn(C)c2C(=O)Nc2ccn3cc(-c4ccccc4)nc3n2)n1` [Example 158, N4-((4-chloro-1-methyl-1H-pyrazol-3-yl)methyl)-1-methyl-N5-(2-phenylimidazo[1,2-a]pyrimidin-7-yl)-1H-pyrazole-4,5-dicarboxamide]: 427 nM.
For the compound `CCN(C)C(=O)c1cnn(C)c1C(=O)Nc1ccn2cc(-c3ccccc3)nc2n1` [Example 49, 2-Methyl-2H-pyrazole-3,4-dicarboxylic acid 4-(ethyl-methyl-amide) 3-[(2-phenyl-imidazo[1,2-a]pyrimidin-7-yl)-amide]], the IC50 was determined as 1.9 nM.
Take `Cc1ccc(C)c(C(=O)Nc2ccn3cc(-c4ccccc4)nc3n2)n1` [Example 17, 3,6-Dimethyl-pyridine-2-carboxylic acid (2-phenyl-imidazo[1,2-a]pyrimidin-7-yl)-amide]: the IC50 came out at 28.3 nM.
Next, `Cn1ncc(C(=O)N2CCC2)c1C(=O)Nc1ccn2cc(-c3ccc(Cl)s3)nc2n1` [Example 74, 4-(Azetidine-1-carbonyl)-2-methyl-2H-pyrazole-3-carboxylic acid [2-(5-chloro-thiophen-2-yl)-imidazo[1,2-a]pyrimidin-7-yl]-amide]: 4 nM; `CN(C)C(=O)c1cnn(C)c1C(=O)Nc1ccn2cc(-c3cccc(F)c3)nc2n1` [Example 94, 2-Methyl-2H-pyrazole-3,4-dicarboxylic acid 4-dimethylamide 3-{[2-(3-fluoro-phenyl)-imidazo[1,2-a]pyrimidin-7-yl]amide}]: 11.2 nM; `CCOC(=O)c1cnn(CC)c1C(=O)Nc1ccn2cc(-c3ccccc3)nc2n1` [Example 62, 1-Ethyl-5-(2-phenyl-imidazo[1,2-a]pyrimidin-7-ylcarbamoyl)-1H-pyrazole-4-carboxylic acid ethyl ester]: 12.9 nM.
Next, `CC(C)N(C)C(=O)c1cnn(C)c1C(=O)Nc1ccn2cc(-c3ccccc3)nc2n1` [Example 54, 2-Methyl-2H-pyrazole-3,4-dicarboxylic acid 4-(isopropyl-methyl-amide) 3-[(2-phenyl-imidazo[1,2-a]pyrimidin-7-yl)-amide]]: 34.3 nM; `O=C(Nc1ccn2cc(-c3ccccc3)nc2n1)c1ccnn1-c1ccccc1` [Example 4, 2-Phenyl-2H-pyrazole-3-carboxylic acid (2-phenyl-imidazo[1,2-a]pyrimidin-7-yl)-amide]: 671 nM; `O=C(Nc1ccn2cc(-c3ccccc3)nc2n1)c1cccnc1C(=O)N1CCC1` [Example 44, 2-(Azetidine-1-carbonyl)-N-(2-phenyl-imidazo[1,2-a]pyrimidin-7-yl)-nicotinamide]: 813 nM.
With `CCN(C)C(=O)c1cnn(C)c1C(=O)Nc1ccn2cc(-c3cccc(OCC(=O)OC)c3)nc2n1` [Example 100, [3-(7-{[4-(Ethyl-methyl-carbamoyl)-2-methyl-2H-pyrazole-3-carbonyl]-amino}-imidazo[1,2-a]pyrimidin-2-yl)-phenoxy]-acetic acid methyl ester], the IC50 was 21.8 nM.
Next, `Cn1ncc(C(=O)N2CCC2)c1C(=O)Nc1ccn2cc(-c3cccc(OCF)c3)nc2n1` [Example 82, 4-(Azetidine-1-carbonyl)-N-(2-(3-(fluoromethoxy)phenyl)imidazo[1,2-a]pyrimidin-7-yl)-1-methyl-1H-pyrazole-5-carboxamide]: 3.4 nM.
Next, `CCn1ncc(C(=O)NC)c1C(=O)Nc1ccn2cc(-c3ccccc3)nc2n1` [Example 64, 2-Ethyl-2H-pyrazole-3,4-dicarboxylic acid 4-methylamide 3-[(2-phenyl-imidazo[1,2-a]pyrimidin-7-yl)-amide]]: 6.5 nM; `O=C(Nc1ccn2cc(-c3ccccc3)nc2n1)c1cc([N+](=O)[O-])nn1C1CCCC1` [Example 14, 2-Cyclopentyl-5-nitro-2H-pyrazole-3-carboxylic acid (2-phenyl-imidazo[1,2-a]pyrimidin-7-yl)-amide]: 125 nM; `CC(=O)Oc1cccc(-c2cn3ccc(NC(=O)c4c(C(=O)N5CCC5)cnn4C)nc3n2)c1` [Example 105, 3-(7-(4-(azetidine-1-carbonyl)-1-methyl-1H-pyrazole-5-carboxamido)imidazo[1,2-a]pyrimidin-2-yl)phenyl acetate]: 36.6 nM.
Next, `Cn1ncc(C(=O)NC2CCC2)c1C(=O)Nc1ccn2cc(-c3ccccc3)nc2n1` [Example 59, 2-Methyl-2H-pyrazole-3,4-dicarboxylic acid 4-cyclobutylamide 3-[(2-phenyl-imidazo[1,2-a]pyrimidin-7-yl)-amide]]: 21.1 nM; `Cc1cc(CNC(=O)c2cnn(C)c2C(=O)Nc2ccn3cc(-c4ccccc4)nc3n2)no1` [Example 143, 1-methyl-N-4-((5-methylisoxazol-3-yl)methyl)-N5-(2-phenylimidazo[1,2-a]pyrimidin-7-yl)-1H-pyrazole-4,5-dicarboxamide]: 162 nM; `COCCN(C)C(=O)c1cnn(C)c1C(=O)Nc1ccn2cc(-c3cccc(F)c3)nc2n1` [Example 107, 2-Methyl-2H-pyrazole-3,4-dicarboxylic acid 3-{[2-(3-fluoro-phenyl)-imidazo[1,2-a]pyrimidin-7-yl]-amide}4-[(2-methoxy-ethyl)-methyl-amide]]: 51.9 nM.
Regarding `Cn1ncc(C(=O)NCc2ncco2)c1C(=O)Nc1ccn2cc(-c3ccccc3)nc2n1` [Example 122, 1-methyl-N4-(oxazol-2-ylmethyl)-N5-(2-phenylimidazo[1,2-a]pyrimidin-7-yl)-1H-pyrazole-4,5-dicarboxamide], the IC50 was 16.9 nM.
Next, `Cn1ncc(C(=O)NCc2ccccc2)c1C(=O)Nc1ccn2cc(-c3ccccc3)nc2n1` [Example 162, N4-benzyl-1-methyl-N5-(2-phenylimidazo[1,2-a]pyrimidin-7-yl)-1H-pyrazole-4,5-dicarboxamide]: 624 nM; `CC(C)CN(C)C(=O)c1cnn(C)c1C(=O)Nc1ccn2cc(-c3ccccc3)nc2n1` [Example 71, 2-Methyl-2H-pyrazole-3,4-dicarboxylic acid 4-(isobutyl-methyl-amide) 3-[(2-phenyl-imidazo[1,2-a]pyrimidin-7-yl)-amide]]: 17.6 nM; `O=C(Nc1ccn2cc(-c3ccccc3)nc2n1)c1nn[nH]c1C(=O)N1CCC1` [Example 27, 5-(Azetidine-1-carbonyl)-1H-[1,2,3]triazole-4-carboxylic acid (2-phenyl-imidazo[1,2-a]pyrimidin-7-yl)-amide]: 163 nM.
Regarding `Cn1ncc(C(=O)NCc2cn3ccccc3n2)c1C(=O)Nc1ccn2cc(-c3ccccc3)nc2n1` [Example 149, N4-(imidazo[1,2-a]pyridin-2-ylmethyl)-1-methyl-N5-(2-phenylimidazo[1,2-a]pyrimidin-7-yl)-1H-pyrazole-4,5-dicarboxamide], the IC50 was found to be 260 nM.
Next, `Cn1ncc(C(=O)NCc2nc3ccccc3o2)c1C(=O)Nc1ccn2cc(-c3ccccc3)nc2n1` [Example 170, N4-(benzo[d]oxazol-2-ylmethyl)-1-methyl-N5-(2-phenylimidazo[1,2-a]pyrimidin-7-yl)-1H-pyrazole-4,5-dicarboxamide]: 969 nM.
